Assay results reported in patent US20230183216A1, “PYRIDIZIN-3(2H)-ONE DERIVATIVES” (Gilead Sciences, Inc., priority 2021, published 2023).

Tests used:
PARP7 = molecular target: T1, PARP7 (Homo sapiens, UniProt Q7Z3E1); experiment: biochemical;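 note: MSD light signal quantifying PARP7 captured by a plate-immobilized probe, read after 1.5 h equilibration plus 1.5 h with SULFO-TAG anti-GST antibody at room temperature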
T1 sequence (Q7Z3E1 1-657): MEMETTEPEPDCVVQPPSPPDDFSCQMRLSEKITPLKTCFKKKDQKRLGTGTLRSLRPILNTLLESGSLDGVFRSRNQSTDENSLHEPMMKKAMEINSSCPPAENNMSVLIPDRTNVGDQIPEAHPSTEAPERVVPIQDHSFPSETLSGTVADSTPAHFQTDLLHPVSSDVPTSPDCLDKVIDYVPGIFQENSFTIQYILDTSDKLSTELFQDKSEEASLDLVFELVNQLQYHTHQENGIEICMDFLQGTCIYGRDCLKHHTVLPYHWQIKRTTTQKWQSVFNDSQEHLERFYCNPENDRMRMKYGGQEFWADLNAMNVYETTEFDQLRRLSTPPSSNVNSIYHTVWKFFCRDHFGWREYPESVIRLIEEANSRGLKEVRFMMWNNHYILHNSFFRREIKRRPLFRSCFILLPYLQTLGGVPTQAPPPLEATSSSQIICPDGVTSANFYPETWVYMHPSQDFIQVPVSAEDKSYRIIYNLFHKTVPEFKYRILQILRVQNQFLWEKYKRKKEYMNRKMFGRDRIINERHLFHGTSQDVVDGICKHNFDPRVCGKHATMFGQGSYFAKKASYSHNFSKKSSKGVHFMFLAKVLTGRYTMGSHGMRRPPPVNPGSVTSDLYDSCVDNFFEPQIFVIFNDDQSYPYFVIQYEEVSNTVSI
Method: Probe Displacement Assay for PARP7 Displacement of a biotinylated probe (RBN011147; Wigle et al., Cell Chemical Biology, 2020, pp. 877-887) from the PARP7 NAD+-binding site was measured in vitro using a Mesoscale Discovery electrochemiluminescent assay. […] Next, 10 μl of 10 nM PARP7 protein incubated for 1 hour at room temperature with a dose response curve of each test compound in a Greiner LDV polypropylene plate (#781201) is added to the MSD plate containing the immobilized probe. The interaction is allowed to reach equilibrium for 1.5 hours, and then 10 ul of SULFO-TAG labeled anti-GST antibody (Cat #R32AA-1) is added to each well and allowed to incubate for an additional 1.5 hours at room temperature. Finally, 10 μl of MSD read buffer T (4×, Cat. #R92C-1) is added to each well using a Bravo liquid handler to prevent air bubbles in the wells, and the plates are subsequently read in an MSD instrument. Light intensity is then measured to quantify the amount of PARP7 bound to the immobilized probe on the plate.

[1] = test system: STAT1 (phosphorylated at Tyr701) in NCI-H1373 cells; experiment: Phospho-STAT1 (Tyr701) LANCE Ultra TR-FRET Detection Assay; assay type: cell-based; settings: Homo sapiens, 48 hours, induction of pSTAT1, normalized to 10 uM positive control and DMSO, 4-parameter fit, read-out: NH1373 pSTAT1 EC50
Method in brief: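 Endogenous STAT1 Tyr701 phosphorylation induced by compound was measured after seeding 30,000 cells/well onto compound-spotted plates and incubating 48 h at 37 °C, 5% CO2. Lysates were incubated with a sandwich antibody pair overnight at room temperature, and TR-FRET emission was read at 665 and 620 nm.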

Row | IC50 (PARP7) | SMILES | EC50 [1]
1 | 0.497 nM | O=C(N1CCN(c2ncc(C(F)(F)F)cn2)CC1)C(F)(F)CCNc1cc(C(F)(F)F)c(=O)[nH]n1 [Example 72, 3-[[3,3-difluoro-4-oxo-4-[4-[5-(trifluoromethyl)pyrimidin-2-yl]piperazin-1-yl]butyl]amino]-5-(trifluoromethyl)-1H-pyridazin-6-one] | 206 nM
2 | 1.79 nM | O=C(CCNCc1cc(C(F)(F)F)c(=O)[nH]n1)N1CCN(c2ncc(C(F)(F)F)cn2)CC1 [Example 73, 6-(((3-oxo-3-(4-(5-(trifluoromethyl)pyrimidin-2-yl)piperazin-1-yl)propyl)amino)methyl)-4-(trifluoromethyl)pyridazin-3(2H)-one] | 2030 nM
3 | 2.01 nM | O=C([C@@H]1CN(Cc2cc(C(F)(F)F)c(=O)[nH]n2)CCO1)N1CCN(c2ncc(C(F)(F)F)cn2)CC1 [Example 74, 5-(trifluoromethyl)-3-[[(2S)-2-[4-[5-(trifluoromethyl)pyrimidin-2-yl]piperazine-1-carbonyl]morpholin-4-yl]methyl]-1H-pyridazin-6-one] | 1790 nM
4 | 5.12 nM | O=C([C@H]1CN(Cc2cc(C(F)(F)F)c(=O)[nH]n2)CCO1)N1CCN(c2ncc(C(F)(F)F)cn2)CC1 [Example 75, 5-(trifluoromethyl)-3-[[(2R)-2-[4-[5-(trifluoromethyl)pyrimidin-2-yl]piperazine-1-carbonyl]morpholin-4-yl]methyl]-1H-pyridazin-6-one] | 1350 nM
5 | 0.142 nM | O=C(CCC[C@@H]1CCc2c1n[nH]c(=O)c2C(F)(F)F)N1CCN(c2ncc(C(F)(F)F)cn2)CC1 [Example 78, (R)-7-(4-oxo-4-(4-(5-(trifluoromethyl)pyrimidin-2-yl)piperazin-1-yl)butyl)-4-(trifluoromethyl)-2,5,6,7-tetrahydro-3H-cyclopenta[c]pyridazin-3-one] | 24.1 nM
6 | 2.71 nM | O=C(CCC[C@H]1CCc2c1n[nH]c(=O)c2C(F)(F)F)N1CCN(c2ncc(C(F)(F)F)cn2)CC1 [Example 79, (S)-7-(4-oxo-4-(4-(5-(trifluoromethyl)pyrimidin-2-yl)piperazin-1-yl)butyl)-4-(trifluoromethyl)-2,5,6,7-tetrahydro-3H-cyclopenta[c]pyridazin-3-one] | 316 nM
